Assays:
MDA-MB-231 = assay: Cellular proliferation assay (Alamar blue), MDA-MB-231; assay type: cell-based; settings: Homo sapiens, 10% FCS, 72 hours with compound, Alamar blue 24 h, read-out: MDA/MB231 (cellular proliferation assay, Table 4) (converted)
Outline: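 Alamar blue fluorescence (544/590 nm) measured viable cells after 72 h compound exposure; dye incubation 4 h (HCT-116), 6 h (U87-MG) or 24 h (A2780, MDA-MB-231). Cells pre-seeded 24 h, grown in 10% FCS, 37° C, 5% CO2; effect expressed relative to control cells.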

CDK4/CyclinD1 (h) = CDK4/CyclinD1 (h) (Homo sapiens, UniProt P11802); assay: CDK4/CyclinD1 human kinase inhibition, SPA with GST-pRb substrate; assay type: biochemical; settings: read-out: CDK4 pIC50 (converted)
Chain of CDK4/CyclinD1 (h) (P11802 whole entry): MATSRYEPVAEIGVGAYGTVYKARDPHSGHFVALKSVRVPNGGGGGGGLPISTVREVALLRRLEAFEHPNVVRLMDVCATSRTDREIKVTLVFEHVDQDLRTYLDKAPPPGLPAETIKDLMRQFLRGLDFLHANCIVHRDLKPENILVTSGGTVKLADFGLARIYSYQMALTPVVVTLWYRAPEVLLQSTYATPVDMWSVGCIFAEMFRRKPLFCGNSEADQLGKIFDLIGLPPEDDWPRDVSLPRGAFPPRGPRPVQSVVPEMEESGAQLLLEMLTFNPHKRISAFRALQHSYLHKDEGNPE
Chain of CDK4/CyclinD1 (h) (P24385 whole entry partner): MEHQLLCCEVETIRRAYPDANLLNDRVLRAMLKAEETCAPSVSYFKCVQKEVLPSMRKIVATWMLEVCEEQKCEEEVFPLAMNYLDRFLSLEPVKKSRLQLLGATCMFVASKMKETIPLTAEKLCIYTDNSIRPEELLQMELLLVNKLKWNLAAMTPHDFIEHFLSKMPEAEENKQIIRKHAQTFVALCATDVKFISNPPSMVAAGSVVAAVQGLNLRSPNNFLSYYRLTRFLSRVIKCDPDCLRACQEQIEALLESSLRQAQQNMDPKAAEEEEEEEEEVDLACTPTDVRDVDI
Outline: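 Scintillation proximity format: after EDTA/Triton stop containing glutathione SPA beads, 33P incorporation was counted. The reaction ran 60 min at room temperature in Hepes pH 7.5 with NaF, MgCl2, DTT, using 2.5 μg/ml human CDK4/CyclinD1, 40 μg/ml GST-pRb substrate and 2 nM [γ-33P]ATP.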

PLK2 (h) = PLK2 (h) (Homo sapiens, UniProt Q9NYY3); assay: PLK2 human kinase inhibition, SPA; assay type: biochemical; settings: read-out: PLK2 pIC50 (converted)
Chain of PLK2 (h) (Q9NYY3 whole entry): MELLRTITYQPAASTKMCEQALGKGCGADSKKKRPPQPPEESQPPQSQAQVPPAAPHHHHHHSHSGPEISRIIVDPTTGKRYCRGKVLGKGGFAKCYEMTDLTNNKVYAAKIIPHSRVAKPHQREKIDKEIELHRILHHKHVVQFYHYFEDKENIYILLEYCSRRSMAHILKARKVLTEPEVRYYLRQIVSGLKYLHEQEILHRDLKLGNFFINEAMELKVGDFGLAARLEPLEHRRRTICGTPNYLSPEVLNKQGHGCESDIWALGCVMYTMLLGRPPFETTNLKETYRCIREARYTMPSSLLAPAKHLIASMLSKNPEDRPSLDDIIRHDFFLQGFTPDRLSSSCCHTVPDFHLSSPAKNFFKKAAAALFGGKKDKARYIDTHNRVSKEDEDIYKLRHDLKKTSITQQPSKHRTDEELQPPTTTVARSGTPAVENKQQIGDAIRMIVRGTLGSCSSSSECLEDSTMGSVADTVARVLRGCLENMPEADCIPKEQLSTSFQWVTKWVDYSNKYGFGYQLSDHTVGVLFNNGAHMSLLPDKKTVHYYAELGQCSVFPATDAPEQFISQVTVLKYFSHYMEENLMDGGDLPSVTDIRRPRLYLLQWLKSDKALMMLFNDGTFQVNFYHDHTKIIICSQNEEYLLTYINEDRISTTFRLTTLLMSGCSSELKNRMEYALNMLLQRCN
Outline: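 33P incorporation into a biotinylated peptide (2 μM) was captured on streptavidin PVT beads and imaged on Leadseeker. Enzyme at 30 μg/ml, ATP 0.1 μM with 2 nM [γ-33P]ATP, Hepes pH 8.0 with MnCl2 and DTT. Incubation was 20 min at room temperature.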

PLK4 (h) = PLK4 (h) (Homo sapiens, UniProt O00444); assay: PLK-4 human kinase inhibition, scintillation proximity assay (SPA); assay type: biochemical; settings: read-out: PLK4 pIC50 (converted)
Chain of PLK4 (h) (O00444 whole entry): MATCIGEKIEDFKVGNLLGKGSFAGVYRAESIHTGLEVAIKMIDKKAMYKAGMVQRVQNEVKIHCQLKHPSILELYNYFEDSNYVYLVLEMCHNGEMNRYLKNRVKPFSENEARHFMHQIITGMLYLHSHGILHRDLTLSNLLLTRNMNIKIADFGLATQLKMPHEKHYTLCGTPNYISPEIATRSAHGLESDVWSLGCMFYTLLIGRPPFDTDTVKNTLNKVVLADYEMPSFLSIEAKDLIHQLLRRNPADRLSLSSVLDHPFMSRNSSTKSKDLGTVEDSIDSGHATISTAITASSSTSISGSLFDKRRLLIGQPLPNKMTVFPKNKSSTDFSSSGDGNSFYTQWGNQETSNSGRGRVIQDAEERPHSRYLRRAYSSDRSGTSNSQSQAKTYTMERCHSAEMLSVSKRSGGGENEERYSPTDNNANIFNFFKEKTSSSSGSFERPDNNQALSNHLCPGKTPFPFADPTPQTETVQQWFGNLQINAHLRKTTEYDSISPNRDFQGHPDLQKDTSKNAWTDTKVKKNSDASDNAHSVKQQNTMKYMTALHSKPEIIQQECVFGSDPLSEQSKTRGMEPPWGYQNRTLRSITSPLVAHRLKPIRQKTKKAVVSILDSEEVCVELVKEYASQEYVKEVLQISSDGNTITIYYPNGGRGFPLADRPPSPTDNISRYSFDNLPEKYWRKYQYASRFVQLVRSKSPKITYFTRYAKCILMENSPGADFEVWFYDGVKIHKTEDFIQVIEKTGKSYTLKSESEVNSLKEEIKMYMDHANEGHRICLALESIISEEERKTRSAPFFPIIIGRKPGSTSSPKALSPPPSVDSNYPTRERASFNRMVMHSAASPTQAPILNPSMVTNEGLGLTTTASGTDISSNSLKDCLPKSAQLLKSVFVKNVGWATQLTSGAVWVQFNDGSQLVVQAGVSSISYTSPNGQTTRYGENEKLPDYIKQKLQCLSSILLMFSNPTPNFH

Row | Compound | IC50 (MDA-MB-231) [µM] | IC50 (CDK4/CyclinD1 (h)) [µM] | IC50 (PLK2 (h)) [µM] | IC50 (PLK4 (h)) [µM] | melting point [°C]
1 | O=C1CN2CCN(CC2)Cc2cccc(c2)Nc2nccc(n2)-c2ccnc(c2)CCCN1 [Compound 21] | > 10 | 1.29 | > 10 | 4.27 | 243.2 to 244.3
2 | O=C1NCCCc2cc(ccn2)-c2ccnc(n2)Nc2cccc(c2)CN[C@H]1CO [Compound 19] | 6.17 | 1.26 | > 10 | 1.2 | 253.6 to 254.9
3 | CN1CCCNC(=O)C2CCN(CC2)Cc2cc(cc(N3CCOCC3)c2)Nc2nccc(n2)-c2ccc(cc2)C1 [Compound 72] | > 10 | > 10 | > 10 | 2.34 | –
4 | O=C1NCCCOc2cccc(c2)-c2ccnc(n2)Nc2ccc(N3CCOCC3)c(c2)CN2CCC[C@@H]12 [Compound 96] | > 10 | > 10 | > 10 | 0.398 | –
5 | COc1ccc2cc1CN(C)CCNC(=O)C1CCN(CC1)Cc1cc(cc(NC(C)C)c1)Nc1nccc-2n1 [Compound 75] | > 10 | > 10 | > 10 | 3.09 | –
6 | O=C1CN2CCN(CC2)Cc2cc(ccc2N2CCOCC2)Nc2nccc(n2)-c2ccc(cc2)OCCN1 [Compound 9] | > 10 | 7.94 | > 10 | 0.417 | –

Source: patent US8609836B2, “4-aryl-2-anilino-pyrimidines” (Janssen Pharmaceutica NV, priority 2008, dated 2013)
